Source: PubChem BioAssay AID2060504 (Molecular Pharmacology Branch, DTP, NCI, 2025)

Tested on: 636577-100-R-J1-PDC complex spheroid viability
Experiment: Anticancer human tumor 636577-100-R-J1-PDC patient-derived endometrial adenocarcinoma cell line growth inhibition [GQUAD]
Settings: for IC50: curve of first compound; for viability, T/C: stronger effect = lower value
In short: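 Tumor cells were grown as complex spheroids with HUVEC endothelial cells and mesenchymal stem cells as stroma. G-quadruplex stabilizers were combined with targeted agents over half-log dilutions from near the clinical Cmax, or from 10 microM.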
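Also: viability read after seven days of drug exposure.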
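For viability, T/C in this document: luminescence signal used as a proxy for viable cells; 100% = DMSO vehicle control wells.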

SMILES: CC1COCCN1c1cc(C2(S(C)(=N)=O)CC2)nc(-c2ccnc3[nH]ccc23)n1 (configuration not stated) + CN(C)c1ccc(Nc2c3ccc(NC(=O)CCN4CCCC4)cc3nc3cc(NC(=O)CCN4CCCC4)ccc23)cc1
- IC50 (second compound 0.0316 µM): 1040 nM
- IC50 (second compound 0.1 µM): 934 nM
- IC50 (second compound 0.316 µM): 463 nM
- IC50 (second compound 1 µM): 626 nM
- IC50 (second compound 3.16 µM): < 31.6 nM
- IC50 (second compound 10 µM): < 31.6 nM
- viability, T/C (second compound 0.0316 µM, first compound 0.0316 µM): 91.4%
- viability, T/C (second compound 0.0316 µM, first compound 0.1 µM): 74.6%
- viability, T/C (second compound 0.0316 µM, first compound 0.316 µM): 89.4%
- viability, T/C (second compound 0.0316 µM, first compound 1 µM): 51.2%
- viability, T/C (second compound 0.0316 µM, first compound 3.16 µM): 21.4%
- viability, T/C (second compound 0.0316 µM, first compound 10 µM): 14%
- viability, T/C (second compound 0.1 µM, first compound 0.0316 µM): 78.4%
- viability, T/C (second compound 0.1 µM, first compound 0.1 µM): 71.3%
- viability, T/C (second compound 0.1 µM, first compound 0.316 µM): 89.4%
- viability, T/C (second compound 0.1 µM, first compound 1 µM): 48.1%
- viability, T/C (second compound 0.1 µM, first compound 3.16 µM): 22.4%
- viability, T/C (second compound 0.1 µM, first compound 10 µM): 14.6%
- viability, T/C (second compound 0.316 µM, first compound 0.0316 µM): 75.7%
- viability, T/C (second compound 0.316 µM, first compound 0.1 µM): 67.3%
- viability, T/C (second compound 0.316 µM, first compound 0.316 µM): 54.2%
- viability, T/C (second compound 0.316 µM, first compound 1 µM): 41.2%
- viability, T/C (second compound 0.316 µM, first compound 3.16 µM): 24.4%
- viability, T/C (second compound 0.316 µM, first compound 10 µM): 14.1%
- viability, T/C (second compound 1 µM, first compound 0.0316 µM): 42.9%
- viability, T/C (second compound 1 µM, first compound 0.1 µM): 80.2%
- viability, T/C (second compound 1 µM, first compound 0.316 µM): 65%
- viability, T/C (second compound 1 µM, first compound 1 µM): 41.2%
- viability, T/C (second compound 1 µM, first compound 3.16 µM): 23.6%
- viability, T/C (second compound 1 µM, first compound 10 µM): 16%
- viability, T/C (second compound 3.16 µM, first compound 0.0316 µM): 34.6%
- viability, T/C (second compound 3.16 µM, first compound 0.1 µM): 45.8%
- viability, T/C (second compound 3.16 µM, first compound 0.316 µM): 34%
- viability, T/C (second compound 3.16 µM, first compound 1 µM): 29.5%
- viability, T/C (second compound 3.16 µM, first compound 3.16 µM): 18.3%
- viability, T/C (second compound 3.16 µM, first compound 10 µM): 13.2%
- viability, T/C (second compound 10 µM, first compound 0.0316 µM): 6.13%
- viability, T/C (second compound 10 µM, first compound 0.1 µM): 5.83%
- viability, T/C (second compound 10 µM, first compound 0.316 µM): 5.26%
- viability, T/C (second compound 10 µM, first compound 1 µM): 5.47%
- viability, T/C (second compound 10 µM, first compound 3.16 µM): 3.58%
- viability, T/C (second compound 10 µM, first compound 10 µM): 1.72%
